According to paper PMC3759264 (The Journal of organic chemistry, 2013):

Experiments:
M. tuberculosis H37Rv = M. tuberculosis H37Rv MIC assay; format: cell-based, Mycobacterium tuberculosis; settings: Mtb H37Rv; for MIC50 –Fe: iron-deficient; for MIC50 +Fe: iron-replete
MbtA [1] = molecular target: T1, MbtA (Mycobacterium tuberculosis, UniProt P71716); format: binding
MbtA [2] = molecular target: T1, MbtA; format: biochemical; settings: read-out: Ki^app MbtA; 250 µM salicylic acid, 10 mM ATP, 1 mM PPi, 7 nM MbtA

T1 sequence (P71716 whole entry): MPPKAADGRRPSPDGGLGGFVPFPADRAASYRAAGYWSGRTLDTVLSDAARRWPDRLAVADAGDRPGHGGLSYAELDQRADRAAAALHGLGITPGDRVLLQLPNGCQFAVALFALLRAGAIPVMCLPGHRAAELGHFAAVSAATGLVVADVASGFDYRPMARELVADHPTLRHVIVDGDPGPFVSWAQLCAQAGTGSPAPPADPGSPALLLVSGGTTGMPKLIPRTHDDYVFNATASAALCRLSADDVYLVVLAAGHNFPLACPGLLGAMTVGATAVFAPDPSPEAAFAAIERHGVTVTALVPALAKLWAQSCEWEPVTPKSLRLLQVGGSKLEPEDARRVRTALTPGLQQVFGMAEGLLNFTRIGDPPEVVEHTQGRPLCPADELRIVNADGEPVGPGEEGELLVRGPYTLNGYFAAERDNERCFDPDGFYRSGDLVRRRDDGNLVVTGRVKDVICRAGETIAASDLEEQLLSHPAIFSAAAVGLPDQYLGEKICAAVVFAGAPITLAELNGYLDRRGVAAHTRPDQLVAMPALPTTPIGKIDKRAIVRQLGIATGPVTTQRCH

SMILES	MIC50 –Fe (M. tuberculosis H37Rv)	MIC50 +Fe (M. tuberculosis H37Rv)	fold loss of potency (KD, MbtA) relative to chromone 1 (MbtA [1]; FP assay)	fold increase in potency (KD, MbtA) relative to chromone 1 (MbtA [1])	Ki (MbtA [2])
Nc1ncnc2c1ncn2[C@@H]1O[C@H](CNS(=O)(=O)c2coc3ccccc3c2=O)[C@@H](O)[C@H]1O [Compound 1, 5′-Amino-5′-N-[(chromon-3-yl)sulfonyl]-5′-deoxy-adenosine]	>50 µM	>50 µM	–	–	–
Nc1ncnc2c1ncn2[C@@H]1O[C@H](CNS(=O)(=O)c2coc3c(O)cccc3c2=O)[C@@H](O)[C@H]1O [Compound 4, 5′-Amino-5′-deoxy-5′-N-[(8-hydroxychromon-3-yl)sulfonyl]adenosine]	>50 µM	>50 µM	80 fold	–	–
Nc1ncnc2c1ncn2[C@@H]1O[C@H](CNS(=O)(=O)c2noc3ccccc3c2=O)[C@@H](O)[C@H]1O [Compound 3, 5′-Amino-5′-deoxy-5′-N-[(4-oxo-4H-benzo[e][1,2]oxazin-3-yl)sulfonyl]adenosine]	>50 µM	>50 µM	–	~10 fold	–
Nc1ncnc2c1ncn2[C@@H]1O[C@H](CNS(=O)(=O)c2c[nH]c3ccccc3c2=O)[C@@H](O)[C@H]1O [Compound 2, 5′-Amino-5′-deoxy-5′-N-[(quinol-4-on-3-yl)sulfonyl]adenosine]	>50 µM	>50 µM	–	–	120 ± 20 nM
